How the values were obtained:
Type in all cases: in vivo
[1] = test system: ischemia-reperfusion model of AKI in mice (IR-AKI); test: IR-AKI mice, pyridoxamine pre-treatment, renal fibrosis and injury markers 28 days after injury; settings: day 28 after injury
Procedure: FIG. 1. Dose dependent effects of pre-treatment with pyridoxamine (PYR) at 500 and 1000 mg/kg/day on renal fibrosis 28 days after I/R-AKI. (A) Experimental model. Mice underwent unilateral renal pedicle clamping (U-IR) followed by contralateral nephrectomy 8 days after the initial surgery. All mice were pre-treated for 3 days with either vehicle control, or PYR 500 and 1000 mg/kg/day in drinking water supplemented with 200 mg PYR twice a day (or vehicle) by oral gavage for 3 days after each surgical procedure.
(§1) Treatment was continued for 28 days at which point mice were sacrificed and kidney harvested for analysis. (B-D) Expression of renal fibrosis markers Col1α1, α-SMA and Col3α1 mRNA relative to Gapdh mRNA control. (E) Quantification of Sirius red stained (% total area). (F) Representative images for Sirius red stained tissues (outer medulla; scale bars, 50 μm). Results expressed as mean +/−SEM, n=9-10 mice per group. Results only indicated if ANOVA p<0.05: *p<0.05, **p<0.01, ***p<0.001, #p<0.0001. Comparison with uninjured controls (no brackets), or vehicle treated mice (brackets).
FIG. 2. Dose dependent effects of pre-treatment with PYR at 500 and 1000 mg/kg/day on markers of renal injury 28 days after UR-AM. Effect of PYR on Kim1 (A) and NGAL (B) mRNA on day 28 after injury. Results expressed as mean +/−SEM, n=9-10 mice per group. Results only indicated if ANOVA p<0.05: *p<0.05, **p<0.01, ***p<0.001, #p<0.0001. Comparison with uninjured controls (no brackets), or vehicle treated mice (brackets).
(§2) Two doses of pyridoxamine were administered orally, 500 mg/kg/day and 1000 mg/kg/day to an experimental model of AM, the surgical, ischemia-reperfusion model of AKI in mice (IR-AKI) [Cianciolo Cosentino et al, 2013; Skrypnyk et al, 2013], a model of renal ischemia that has been used extensively to model ischemic injury associated with cardiac surgery acquired (CSA-AKI) [Thiele et al, 2015]. For the bulk of the studies pyridoxamine was administered for 3 days prior to the induction of AKI and was continued until completion of the studies. In some experiments, pyridoxamine was administered 24 hours after the induction of AM.
The injury models and treatments were administered as illustrated in FIG. 1A. Mice underwent unilateral renal pedicle clamping (LT-IR) followed by contralateral nephrectomy 8 days after the initial surgery. All mice were pre-treated for 3 days with either vehicle control, or PYR 500 and 1000 mg/kg/day in drinking water supplemented with 200 mg PYR twice a day (or vehicle) by oral gavage for 3 days after each surgical procedure. Treatment was continued for 28 days at which point mice were sacrificed and kidneys harvested for analysis.

[2] = test system: ischemia-reperfusion model of AKI in mice (IR-AKI); test: IR-AKI mice, pyridoxamine pre-treatment, renal injury and oxidative stress 3 days after injury; settings: pre-treatment 1000 mg/kg/day, day 3 after injury, vs vehicle
Procedure: FIG. 5. Dose dependent effect of pre-treatment with PYR at 500 and 1000 mg/kg/day on renal injury 3 days after I/R-AKI. (A) Experimental model, Mice underwent U-IR and were pre-treated for 3 days with either vehicle control, PYR 500 mg/kg/day or PYR 1000 mg/kg/day in drinking water supplemented with 200 mg PYR twice a day (or vehicle) by oral gavage for 3 days after the surgical procedure. Mice were sacrificed and kidney harvested for analysis 3 days after the initial injury. (B, C) Renal Kim1 and NGAL mRNA expression 3 days after injury expressed as the ratio to Gapdh mRNA control. (D) Tubular injury score 3 days after injury in the OM (0-4, arbitrary units). (E) Representative images for PAS stained tissues (outer medulla; scale bars, 50 μm) F) Expression renal isofuran/isoprostane ratios after
PYR treatment with 500 and 1000 mg/kg/day 3 days after LI-IR. Results expressed as mean +/−SEM, n=9-10 mice per group. Results only indicated if ANOVA p<0.05: *p<0.05, **p<0.01, ***p<0.001, #p<0.0001. Comparison with uninjured (no brackets), or vehicle or PYR 500 mg/kalday treated mice (brackets).
as §2
To determine whether there was also a dose-dependent effect of pyridoxamine at 500 and 1000 mg/kg/day on early renal injury after IR-AKI, mice were sacrificed on day 3 after injury (FIG. 5A) to evaluate renal injury and renal oxidative stress levels.

[3] = Plasma pyridoxamine levels after I/R-AKI; settings: mice with IR-AKI; for average pyridoxamine plasma levels: 1000 mg/kg/day
Procedure: FIG. 6. Plasma PYR levels after I/R-AKI. (A) Mice underwent U-IR and were pre-treated for 3 days with vehicle control, PYR 500 mg/kg/day or PYR 1000 mg/kg/day in drinking water supplemented with 200 mg PYR twice a day (or vehicle) by oral gavage for 3 days after the surgical procedure. Evaluation of PYR plasma levels on Day 3 after injury. (B) Mice underwent U-IR followed by contralateral nephrectomy 8 days after the initial surgery. All mice were pre-treated with vehicle control, PYR 500 mg/kg/day or 1000 mg/kg/day in drinking water supplemented with 200 mg PYR twice a day (or vehicle) by oral gavage for 3 days after each surgical procedure. Treatment was continued for 28 days at which point mice underwent venesection for analysis of plasma PYR levels. Evaluation of PYR plasma levels on Day 28 after injury. Results expressed as mean +/−SEM, n=9-10 mice per group. Results only indicated if ANOVA p<0.05: *p<0.05, **p<0.01, ***p<0.001, #p<0.0001. Comparison with uninjured controls (no brackets), or vehicle or PYR 500 mg/kg/day treated mice (brackets).

[4] = test system: ischemia-reperfusion model of AKI in mice (IR-AKI); test: IR-AKI mice, pyridoxamine treatment started 24 hours after injury, renal fibrosis and injury markers at 28 days; settings: 1000 mg/kg/day started 24 hours after injury, day 28
Procedure: as §1, with “FIG. 3. […] (A) Experimental model. Mice underwent U-IR followed by contralateral nephrectomy 8 days after the initial surgery. Mice were treated with PYR 1000 mg/kg/day starting 24 hours after the initial injury supplemented with 200 mg PYR twice a day (or vehicle) by oral gavage for 3 days after each surgical procedure. Treatment” for “Treatment”, “n=8-10/group.” for “n=9-10 mice per group.”, “Results” for “Results only”, “uninjured” for “uninjured controls”, “or delayed PYR treatment” for “treated mice”
FIG. 4. No effects of treatment with PYR at 1000 mg/kg/day started 24 hours after injury on markers of renal injury 28 days after I/R-AKI. (A, B) Expression of renal injury markers Kim1 and NGAL mRNA relative to Gapdh mRNA control on day 28 after injury. Results expressed as mean +/−SEM, n=8-10/group. Results indicated if ANOVA p<0.05: *p<0.05, **p<0.01, ***p<0.001, #p<0.0001. Comparison with uninjured (no brackets), or vehicle or delayed PYR treatment (brackets).
as §2
To determine whether delayed treatment with the high dose of pyridoxamine was effective in reducing post-injury fibrosis after IR-AKI, mice were treated with PYR 1000 mg/kg/day starting 24 hours after the initial injury supplemented with 200 mg PYR twice a day (or vehicle) by oral gavage for 3 days after each surgical procedure. Treatment was continued for 28 days at which point mice were sacrificed and kidney harvested for analysis (FIG. 3A).

[5] = pre-treatment 500 and 1000 mg/kg/day oral, kidney, vs vehicle

In the case of `Cc1ncc(CO)c(CN)c1O` [pyridoxamine], the “expression of pro-fibrotic gene Col1α1 mRNA” value [1, 5] is reported as “lowered expression”, the “expression of pro-fibrotic gene Col3α1 mRNA” value [1, 5] is reported as “lowered expression” and the “expression of pro-fibrotic gene αSMA mRNA” value [1, 5] is reported as “lowered expression”. For the same compound, the “level of fibrosis (Sirius red staining)” value [1, 5] was “decreased level of fibrosis”, the “expression of renal injury marker Kim1” value ([1]; pre-treatment 500 and 1000 mg/kg/day) was “lowered expression” and the “histological tubular injury scores” value ([2]; outer medulla) was “reduction”. The “renal NGAL mRNA expression” value [2] was “significant, dose-dependent decrease”, the “renal levels of oxidative stress marker isofuran-to-isoprostane ratio” value [2] was “reduction” and the “average pyridoxamine plasma levels” value ([3]; day 3) was ~6 µg/mL. The “average pyridoxamine plasma levels” value ([3]; day 28) was ~6 µg/mL, the “plasma pyridoxamine levels, dose dependence” value ([3]; 500 vs 1000 mg/kg/day, days 3 and 28) was “dose-dependent increase” and the “expression of injury marker Kim1” value [4] was “did not lower expression”. The “expression of injury marker NGAL” value [4] was “did not lower expression”, the “expression of pro-fibrotic gene Col3α1 mRNA” value [4] was “lowered expression” and the “expression of pro-fibrotic gene αSMA mRNA” value [4] was “lowered expression”. For the same compound, the “post-injury fibrosis (Sirius red staining)” value [4] was “decreased post-injury fibrosis”, the “expression of injury marker Kim1” value ([4]; listed as PYR) was “No effects” and the “expression of injury marker NGAL” value ([4]; listed as PYR) was “No effects”. The “post-injury fibrosis (Sirius red staining)” value ([4]; listed as PYR) was “Beneficial effects”.
